Measured values taken from patent US12115158B2, “Survivin-targeting anti-tumor agents and uses thereof” (Indiana University Research and Technology Corporation, priority 2020, dated 2024).
“Also recorded” adds a separate entry of the source. Where two headings read alike, the source gives them in different places.

Tests used:
[1] = system: PC-3; settings: MTT assay; data from the previous study [12]; cited from earlier work
[2] = system: C4-2 cells; test: Methylene blue survival assay; type: cell-based; settings: Homo sapiens, 72-hr treatment
Protocol: (§1) Methylene blue survival assay. Prostate cancer cells were seeded 2000-3500 per well (cell line dependent) and treated with LQZ-7-3 for 72 hours. After 72 hours, media was then removed and cells were fixed with methanol for 30 minutes and subsequently stained with 100 μL of 1% methylene blue (diluted in 10 mM borate buffer) for 1 hour. The cells were then washed 3× with 10 mM borate buffer and then allowed to air dry for 30 minutes. 100 μL of 100% ethanol:0.1 M HCl (1:1) was added to each well to dissolve the methylene blue stain and absorbance was measured via spectrometry at […]. After normalization to DMSO controls, the percent viabilities were graphed and IC50 concentrations were determined using Prism.
(§2) LQZ-7I has enhanced cytotoxicity compared to the parent compound LQZ-7. These five newly synthesized LQZ-7 analogs were first tested for their cytotoxicity against prostate cancer cell lines C4-2 and PC-3 in comparison with their parent compound LQZ-7 using methylene blue assay. […] The other compounds performed worse with higher IC50 compared with LQZ-7.

[3] = system: PC-3 cells; test: Methylene blue survival assay; type: cell-based; settings: Homo sapiens, 72-hr treatment
Protocol: as §1, §2

[4] = target: survivin dimerization (Homo sapiens, UniProt O15392); test: Survivin mammalian two hybrid assay (SEAP reporter, Du145 cells); type: cell-based; settings: 24 hours treatment
Chain of survivin dimerization (O15392 whole entry): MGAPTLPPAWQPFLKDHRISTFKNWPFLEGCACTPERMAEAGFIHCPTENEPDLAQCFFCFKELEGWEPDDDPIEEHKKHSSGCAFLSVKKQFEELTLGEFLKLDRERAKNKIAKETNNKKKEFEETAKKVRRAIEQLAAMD
Protocol: (§8) Survivin mammalian two hybrid assay. The mammalian two hybrid assay was performed utilizing the ClonTech Matchmaker Mammalian Two Hybrid Assay kit [13]. Briefly, the coding region (˜400 bp) of survivin was cloned in to two different plasmids, the pM plasmid containing the GAL4-DNA Binding Domain and the pVP16 plasmid containing an activation domain. […] These two plasmids (0.45 ug/well) along with the pGSEAP reporter plasmid (0.09 ug/well) and firefly luciferase plasmid (30 ng/well) were co-transfected in to 1×10^5 Du145 cells per well in a 12 well plate. Each condition was tested in triplicate. […] SEAP was detected utilizing the Takara ClonTech SEAP Great Escape chemiluminescence assay kit 2.0 and cells were lysed and luciferase was measured to control for transfection efficiency.
Dimerization of survivin activates the expression of Secreted Embryonic Alkaline Phosphatase (SEAP) reporter gene, which can be monitored.

[5] = system: PC-3 xenograft tumors; test: PC-3 xenograft model; type: in vivo, NSG male mice
Protocol: PC-3 Xenograft Model. For the in vivo efficacy study, 3×10^6 PC-3 cells in media were implanted in to the hind flanks of 6 week old NSG male mice. After the tumor volume reached approximately […] in volume, the mice were randomized in to two groups (5 mice/group). The mice were either given 200 uL vehicle (90% corn oil/10% DMSO) or LQZ-7-3 100 mg/kg vial oral gavage every other day for a total of ten treatments. Before each treatment mouse bodyweight and tumor volume by caliper was measured. At the end of the study mice were sacrificed, and tumors were extracted for western blot analysis and […] staining of survivin.

[6] = Solubility in corn oil; type: physicochemical
[7] = target: T1, survivin (Homo sapiens, UniProt O15392); test: Survivin level by Western blot in prostate cancer cells; settings: C4-2 and PC-3 cells
T1 sequence (O15392 whole entry): as above
Protocol: IAP family member degradation assay. For this experiment C4-2 or PC-3 cells were plated in a 10 cm dish at 1×10^6 cells per dish. 24 hours later the media was changed and cells were treated with DMO or LQZ-7-3. After 48 hours the cells were harvested, washed in PBS, and IAP family members level were evaluated using specific antibodies and Western Blotting.

[8] = system: p53-large T antigen dimerization; test: Mammalian two hybrid assay, specificity control; settings: same two hybrid assay
Protocol: as §8

[9] = target: T1, survivin; test: Proteasome inhibitors study (rescue of survivin loss); type: cell-based; set-up: we examined survivin expression level in C4-2 and PC-3 cells following 7I treatments; endogenous in cells; host or cells: PC-3, C4-2; settings: PC-3 and C4-2 cells
Protocol: Proteasome Inhibitors Study. For the proteasome inhibitor rescue experiment, PC3 and C4-2 cells were seeded in 10-cm dishes at 8×10^5 cells/dish and cultured for 48 hours followed by replacement with fresh media containing DMSO control, 7 μmol/L MG132, or 70 nmol/L bortezomib and incubation for 2 hours. LQZ-7-3 was then added to the culture to final concentrations of 10 uM respectively and incubated for additional 24 hours. The cells were then harvested used for Western blot analysis of survivin.
To determine if 7I-induced survivin degradation occurs in proteasome, we performed a rescue experiment by pre-treating cells using proteasome inhibitors MG132 and bortezomib for 1 hr prior to 7I treatment. […] Thus, 7I likely induces survivin degradation via proteasome. 7I induces apoptosis. It has been shown previously that depleting survivin or inhibiting survivin using dominant negative forms of survivin cause spontaneous apoptosis in cancer cells (ref) and that the parent compound LQZ-7 also induces apoptosis. We next tested if 7I would induce apoptosis by inhibiting survivin. For this purpose, we first performed Western blot analysis of cleaved caspase 3 in C4-2 and PC-3 cells following 7I treatments. […] We next determined if 7I is active in suppressing tumor growth in vivo using a PC-3 xenograft model. […]

[10] = target: CIAP1 (Homo sapiens, UniProt Q13490); test: IAP family member degradation assay; type: cell-based; settings: C4-2 and PC-3 cells, Western blot
Chain of CIAP1 (Q13490 whole entry): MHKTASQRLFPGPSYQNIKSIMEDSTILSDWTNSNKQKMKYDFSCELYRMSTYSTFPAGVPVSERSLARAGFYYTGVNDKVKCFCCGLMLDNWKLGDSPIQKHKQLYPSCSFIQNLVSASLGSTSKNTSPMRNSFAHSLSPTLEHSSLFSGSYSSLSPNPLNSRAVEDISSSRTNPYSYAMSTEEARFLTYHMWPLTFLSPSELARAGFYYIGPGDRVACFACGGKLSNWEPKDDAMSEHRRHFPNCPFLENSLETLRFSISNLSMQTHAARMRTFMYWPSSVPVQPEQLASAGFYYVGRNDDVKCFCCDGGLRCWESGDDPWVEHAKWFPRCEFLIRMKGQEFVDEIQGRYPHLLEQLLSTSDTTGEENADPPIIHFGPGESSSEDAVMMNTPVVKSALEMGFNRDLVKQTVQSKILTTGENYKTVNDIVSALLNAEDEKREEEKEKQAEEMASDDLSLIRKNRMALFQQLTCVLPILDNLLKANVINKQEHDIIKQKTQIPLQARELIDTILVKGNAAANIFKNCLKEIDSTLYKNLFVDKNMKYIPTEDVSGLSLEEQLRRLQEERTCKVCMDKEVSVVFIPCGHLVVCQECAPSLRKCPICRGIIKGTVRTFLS
Protocol: (§3) Survivin mammalian two hybrid assay. […] Each condition was tested in triplicate. […] IAP family member degradation assay.
(§4) Selectivity of 7I. […] To ensure 7I is selective to survivin, we tested its effect on other members of the IAP family by taking advantage of its induction of target loss. For this purpose, we performed Western blot analysis to determine the expression level of other IAPs including XIAP, CIAP1, and CIAP2 in addition to survivin following 7I treatment of C4-2 and PC-3 cells. […] However, it had no effect on the expression of XIAP, CIAP1, and CIAP2. Thus, 7I may be selective to its intended target survivin. 7I induces survivin degradation in a proteasome-dependent manner. […] Because 7I inhibited survivin dimerization as shown above, we hypothesized that 7I will also induce survivin degradation. To test this hypothesis, we examined survivin expression level in C4-2 and PC-3 cells following 7I treatments. […] We next performed a cycloheximide-chase experiment following 7I treatment to determine the half-life of survivin. […] Thus, 7I induces survivin degradation in both cell lines.

[11] = target: CIAP2 (Homo sapiens, UniProt Q13489); test: IAP family member degradation assay; type: cell-based; settings: C4-2 and PC-3 cells, Western blot
Chain of CIAP2 (Q13489 whole entry): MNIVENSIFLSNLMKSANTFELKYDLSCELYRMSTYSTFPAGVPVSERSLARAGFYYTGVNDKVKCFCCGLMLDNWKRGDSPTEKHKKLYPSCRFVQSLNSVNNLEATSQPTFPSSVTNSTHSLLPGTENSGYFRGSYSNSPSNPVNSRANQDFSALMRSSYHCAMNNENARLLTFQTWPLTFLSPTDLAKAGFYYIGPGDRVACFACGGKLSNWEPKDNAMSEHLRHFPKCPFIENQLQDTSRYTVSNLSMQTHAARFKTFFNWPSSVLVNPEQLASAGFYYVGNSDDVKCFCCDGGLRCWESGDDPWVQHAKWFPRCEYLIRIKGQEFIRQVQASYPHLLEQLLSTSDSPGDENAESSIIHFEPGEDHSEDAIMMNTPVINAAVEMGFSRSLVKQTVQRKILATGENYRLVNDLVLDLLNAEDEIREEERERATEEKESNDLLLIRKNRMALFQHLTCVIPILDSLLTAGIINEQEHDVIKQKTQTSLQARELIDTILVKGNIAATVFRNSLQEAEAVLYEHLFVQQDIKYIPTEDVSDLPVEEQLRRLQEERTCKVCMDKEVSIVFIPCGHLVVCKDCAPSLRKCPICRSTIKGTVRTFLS
Protocol: as §3, §4

[12] = target: XIAP (Homo sapiens, UniProt P98170); test: IAP family member degradation assay; type: cell-based; settings: C4-2 and PC-3 cells, Western blot
Chain of XIAP (P98170 whole entry): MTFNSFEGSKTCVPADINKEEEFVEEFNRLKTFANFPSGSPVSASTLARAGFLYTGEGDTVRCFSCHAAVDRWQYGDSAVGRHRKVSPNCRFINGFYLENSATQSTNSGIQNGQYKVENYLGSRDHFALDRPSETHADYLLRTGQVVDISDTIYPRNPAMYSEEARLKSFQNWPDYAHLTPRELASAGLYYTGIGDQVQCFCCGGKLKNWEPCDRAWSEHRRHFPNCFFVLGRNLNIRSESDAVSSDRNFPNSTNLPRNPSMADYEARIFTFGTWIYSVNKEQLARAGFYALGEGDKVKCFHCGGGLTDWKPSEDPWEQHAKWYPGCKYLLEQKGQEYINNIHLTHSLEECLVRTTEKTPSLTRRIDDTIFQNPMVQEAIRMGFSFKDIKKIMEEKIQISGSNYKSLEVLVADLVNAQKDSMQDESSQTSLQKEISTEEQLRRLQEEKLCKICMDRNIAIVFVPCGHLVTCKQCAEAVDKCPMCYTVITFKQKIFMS
Protocol: as §3, §4

[13] = system: cleaved caspase 3; test: Western blot analysis of cleaved caspase 3; type: cell-based, human; settings: C4-2 and PC-3 cells
Source text: To determine if 7I-induced survivin degradation occurs in proteasome, we performed a rescue experiment by pre-treating cells using proteasome inhibitors MG132 and bortezomib for 1 hr prior to 7I treatment. […] Thus, 7I likely induces survivin degradation via proteasome. 7I induces apoptosis. It has been shown previously that depleting survivin or inhibiting survivin using dominant negative forms of survivin cause spontaneous apoptosis in cancer cells (ref) and that the parent compound LQZ-7 also induces apoptosis. We next tested if 7I would induce apoptosis by inhibiting survivin. For this purpose, we first performed Western blot analysis of cleaved caspase 3 in C4-2 and PC-3 cells following 7I treatments. […] We also performed annexin V staining of C4-2 and PC-3 cells as another indicator of apoptosis following 7I treatments. […] 7I inhibits growth of PC-3 xenograft tumors by inhibiting survivin. We next determined if 7I is active in suppressing tumor growth in vivo using a PC-3 xenograft model. […] The xenograft tumors in the 7I-treatment group trended to be smaller and pale in color than the control group (FIG. 16C-D). Thus, 7I may be effective in inhibiting tumor growth with little toxicity.
Apoptosis Studies. To determine if LQZ-7F-1 also induces apoptosis of cancer cells Flow Cytometry with Annexin V staining was performed in coordination with the Flow Cytometry Core. […]

[14] = system: stable C4-2 cells over expressing survivin; test: Methylene blue assay in survivin overexpression cells; type: cell-based; settings: Homo sapiens; stable C4-2 clone, HA-tagged survivin; read-out: IC50, survivin over-expression
Protocol: as §1
(§5) Survivin overexpression decreases cellular sensitivity to 7I. To corroborate above findings and to further investigate 7I inhibition of cancer cell survival via survivin, we generated a stable C4-2 clone with overexpression of HA-tagged survivin (FIG. 13D) and tested the effect of survivin over-expression on 7I cytotoxicity. […] Thus, 7I likely works via inhibiting survivin.
(§6) LQZ-7F-1 Cytotoxicity in Survivin Overexpression Cells. To determine if survivin overexpressing cells have a decreased sensitivity to LQZ-7F-1, C4-2 survivin stable overexpressing cells were once again used in a cell cytotoxicity assay.

[15] = system: C4-2 cells; test: Apoptosis assay (Annexin V flow cytometry); type: cell-based, human; settings: 3 μM
Protocol: (§7) Survivin Cycloheximide Half-Life Assay. The effect of LQZ-7-3 on survivin half-life was performed as previously described. Briefly, PC-3 or C4-2 cells were pretreated with 10 μmol/L cycloheximide for 1 hour followed by incubation with or without LQZ-7-3 10 uM for different times (0-6 hours). The cells were then harvested for Western Blot analysis for survivin. Apoptosis Assay. The apoptosis assay was performed as detailed in the Anenxin V-FITC kit from BioVision. Briefly, apoptosis was induced by treatment with LQZ-7-3 and cells were collected by centrifugation. Cells were resuspended in 500 ul of 1× binding buffer and 5 ul of annexin V-FITC and 5 ul of propidium iodide (50 ug/ml) was added to the cells. The cells were incubated at room temperature for 5 minutes in the dark then subjected to quantification by flow cytometry.

[16] = system: PC-3 cells; test: Apoptosis assay (Annexin V flow cytometry); type: cell-based, human; settings: 3 μM
Protocol: as §7

[17] = system: C4-2 vector cells; test: Methylene blue assay in vector control cells; type: cell-based; settings: Homo sapiens; C4-2 vector control; read-out: IC50, vector-transfect control clone
Protocol: as §1, §5, §6

[18] = read-out: IC50 against C4-2 cells
[19] = read-out: IC50 against PC-3 cells

Cc1cccc(Nc2nc3nonc3nc2N/N=C/c2ccc(-c3ccc(Cl)c([N+](=O)[O-])c3)o2)c1C [LQZ-7A]
IC50 [1]: 7.2 ± 2.7 µM

Cc1ccc(-c2ccc(/C=N/Nc3nc4nonc4nc3Nc3cccc(Br)c3)o2)cc1Cl [LQZ-7B]
IC50 [1]: 3.3 ± 0.2 µM

CCOC(=O)c1ccc(Nc2nc3nonc3nc2N/N=C/c2c[nH]nc2-c2ccccc2)cc1 [LQZ-7C]
IC50 [1]: 3.5 µM

Cc1cccc(Nc2nc3nonc3nc2N/N=C/c2cc3c(cc2[N+](=O)[O-])OCO3)c1C [LQZ-7D]
IC50 [1]: 2.6 ± 0.3 µM

O=C(Nc1nc2ccccc2nc1Nc1ccc(F)cc1)c1ccc2c(c1)OCO2 [LQZ-7G, N-(3-((4-fluorophenyl)amino)quinoxalin-2-yl)benzo[d][1,3]dioxole-5-carboxamide]
IC50 ([2]; read-out: IC50 (μm) C4-2): 14.3 µM | IC50 ([3]; read-out: IC50 (μm) PC-3): 20.7 µM

O=C(Nc1nc2ccccc2nc1Nc1ccc(F)cc1)c1ccccc1 [LQZ-7H, N-(3-((4-fluorophenyl)amino)quinoxalin-2-yl)benzamide]
IC50 ([2]; read-out: IC50 (μm) C4-2): 12.7 µM | IC50 ([3]; read-out: IC50 (μm) PC-3): 19.7 µM

Fc1ccc(Nc2nc3ccccc3nc2Nc2ccc(F)cc2)cc1 [LQZ-7I, N^2,N^3-bis(4-fluorophenyl)quinoxaline-2,3-diamine]
SEAP reporter expression / survivin dimerization [4]: significantly decreased; also recorded: significantly inhibited | IC50 ([2]; read-out: IC50 (μm) C4-2): 3.1 µM | IC50 [2, 18]: 3.1 µM | IC50 ([3]; read-out: IC50 (μm) PC-3): 4.8 µM | IC50 [3, 19]: 4.8 µM | body weight ([5]; 100 mg/kg oral gavage): lacking changes | wet weight of major organs at the end of the study ([5]; 100 mg/kg oral gavage): lacking changes | tumor growth ([5]; 100 mg/kg oral gavage every other day, ten treatments): significantly suppressed | survivin expression in xenograft tumors ([5]; Western blot and immunofluorescence staining, treatment vs control group): drastically reduced | solubility in corn oil [6]: soluble | survivin expression level after treatment [7]: reduced; also recorded: time-dependent survivin loss | p53-large T antigen dimerization [8]: no effect | compound-induced survivin loss after pretreatment with proteasome inhibitors MG132 and bortezomib [9]: significantly reversed | expression of CIAP1 [10]: no effect | expression of CIAP2 [11]: no effect | expression of XIAP [12]: no effect | cleaved caspase 3 levels [13]: induced cleavage of caspase 3 in a dose dependent manner | IC50 [14]: ~7 µM | apoptosis (annexin V staining) [15]: ~48% | apoptosis (annexin V staining) [16]: ~39% | IC50 [17]: ~2 µM

Cc1cccc(Nc2nc3ccccc3nc2Nc2cccc(C)c2C)c1C [LQZ-7J, N^2,N^3-bis(2,3-dimethylphenyl)quinoxaline-2,3-diamine]
IC50 ([2]; read-out: IC50 (μm) C4-2): 17.6 µM | IC50 ([3]; read-out: IC50 (μm) PC-3): 24.8 µM

Cc1cccc(Nc2nc3nonc3nc2N/N=C/c2ccc(-c3cccc(C(=O)O)c3)o2)c1C [LQZ-7]
IC50 ([2]; read-out: IC50 (μm) C4-2): 9.1 µM | IC50 [2, 18]: 9.1 µM | IC50 ([3]; read-out: IC50 (μm) PC-3): 8.1 µM | IC50 [3, 19]: 8.1 µM | p53-large T antigen dimerization [8]: no effect
